Measurements published in the supplement of paper PMC4862054.

Columns and labels:
Conditions in all cases: incubation time: 72 h
MDA-MB-231 = test: drug sensitivity score (DSS), CellTiter-Blue viability (DSS (AUC-based score)); higher = stronger viability inhibition; extreme values may be limits of the assay
Experimental: (§1)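 DSRT with the CellTiter-Blue (resazurin reduction) viability readout, fluorescence 560/590 nm, 72 h incubation. Plates were normalised to DMSO and benzethonium chloride controls. DSS is computed from the area under the fitted dose-response curve (5 or 9 concentrations).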

SK-BR-3 = test: as above
Experimental: as §1

Hs578T = test: as above
Experimental: as §1

HDQ-P1 = test: as above
Experimental: as §1

HCC1937 = test: as above
Experimental: as §1

MFM-223 = test: as above
Experimental: as §1

DU-4475 = test: as above
Experimental: as §1

HCC1143 = test: as above
Experimental: as §1

MDA-MB-468 = test: as above
Experimental: as §1

CAL-120 = test: as above
Experimental: as §1

BT-549 = test: as above
Experimental: as §1

CAL-148 = test: as above
Experimental: as §1

MDA-MB-453 = test: as above
Experimental: as §1

BT-474 = test: as above
Experimental: as §1

CAL-85-1 = test: as above
Experimental: as §1

CAL-51 = test: as above
Experimental: as §1

MDA-MB-436 [1] = test: as above
Experimental: as §1

HCC1599 [2] = test: as above
Experimental: as §1

MDA-MB-436 [3] = test: normalised viability (% of control), CellTiter-Blue; higher = more viable cells (about 100 = DMSO control)
Procedure, shortened: (§2)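 Vehicle (100) and a positive kill control (0) anchored the normalisation of each plate, and Z'-factor was used for quality control. Breast cancer cell lines in 20 µl suspension were incubated 72 h over compound in 5 µl medium in 384-well plates, followed by CellTiter-Blue at 560/590 nm. The value is normalised viability at a single listed concentration of the series.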

HCC1599 [4] = test: as above
Procedure, shortened: as §2

| SMILES | drug sensitivity score (MDA-MB-231) | drug sensitivity score (SK-BR-3) | drug sensitivity score (Hs578T) | drug sensitivity score (HDQ-P1) | drug sensitivity score (HCC1937) | drug sensitivity score (MFM-223) | drug sensitivity score (DU-4475) | drug sensitivity score (HCC1143) | drug sensitivity score (MDA-MB-468) | drug sensitivity score (CAL-120) | drug sensitivity score (BT-549) | drug sensitivity score (CAL-148) | drug sensitivity score (MDA-MB-453) | drug sensitivity score (BT-474) | drug sensitivity score (CAL-85-1) | drug sensitivity score (CAL-51) | drug sensitivity score (MDA-MB-436 [1]) | drug sensitivity score (HCC1599 [2]) | normalised viability (MDA-MB-436 [3]; 40 nM) | normalised viability (MDA-MB-436 [3]; 4000 nM) | normalised viability (MDA-MB-436 [3]; 40000 nM) | normalised viability (HCC1599 [4]; 40 nM) | normalised viability (HCC1599 [4]; 4000 nM) | normalised viability (HCC1599 [4]; 40000 nM) | normalised viability (MDA-MB-436 [3]; 10 nM) | normalised viability (MDA-MB-436 [3]; 1000 nM) | normalised viability (MDA-MB-436 [3]; 10000 nM) | normalised viability (HCC1599 [4]; 10 nM) | normalised viability (HCC1599 [4]; 1000 nM) | normalised viability (HCC1599 [4]; 10000 nM) | normalised viability (MDA-MB-436 [3]; 0.99 nM) | normalised viability (MDA-MB-436 [3]; 99 nM) | normalised viability (MDA-MB-436 [3]; 990 nM) | normalised viability (HCC1599 [4]; 0.99 nM) | normalised viability (HCC1599 [4]; 99 nM) | normalised viability (HCC1599 [4]; 990 nM) |
| --- | --- | --- | --- | --- | --- | --- | --- | --- | --- | --- | --- | --- | --- | --- | --- | --- | --- | --- | --- | --- | --- | --- | --- | --- | --- | --- | --- | --- | --- | --- | --- | --- | --- | --- | --- | --- |
| CC[C@@H]1C(=O)OC[C@@H]1Cc1cncn1C [Pilocarpine] | 0 | 0 | 0 | 0 | 0 | 0 | 0 | 0 | 0 | 0 | 0 | 0 | 0.965 | 0 | 0 | 0 | 0 | 0 | 95.6% | 95% | 104% | 104% | 92.2% | 92.8% |  |  |  |  |  |  |  |  |  |  |  |  |
| CC(C)(C)c1cnc(CSc2cnc(NC(=O)C3CCNCC3)s2)o1 [SNS-032] | 21.1 | 22 | 23.1 | 21.3 | 20.4 | 17.5 | 20.1 | 17.4 | 16.5 | 18.9 | 17.6 | 19.6 | 20 | 15.2 | 22.1 | 13.8 | 15 | 18 |  |  |  |  |  |  | 105% | 16.2% | 15.1% | 113% | 17.4% | 22.4% |  |  |  |  |  |  |
| Nc1nc2[nH]cnc2c(=S)[nH]1 [Thioguanine] | 8.63 | 0.902 | 2.55 | 0 | 3.55 | 0 | 0 | 0 | 7.48 | 7.28 | 0.924 | 2.39 | 0 | 0 | 3.32 | 0.794 | 4.56 | 0 |  |  |  |  |  |  | 104% | 74.5% | 65.6% | 111% | 77% | 103% |  |  |  |  |  |  |
| C[C@]12CC[C@@H]3c4ccc(OC(=O)N(CCCl)CCCl)cc4CC[C@H]3[C@@H]1CC[C@@H]2O [Estramustine] | 0 | 0 | 0 | 0 | 0 | 0 | 0 | 0 | 0 | 0 | 0 | 0 | 0 | 0 | 0 | 0 | 0 | 0 |  |  |  |  |  |  |  |  |  |  |  |  | 95% | 96.1% | 99.4% | 89% | 76.9% | 98.3% |
| Nc1ncn([C@@H]2O[C@H](CO)[C@@H](O)[C@H]2O)c(=O)n1 [Azacitidine] | 0 | 0 | 3.33 | 0 | 5.11 | 0 | 0 | 0 | 11.3 | 0.768 | 3.42 | 0 | 0 | 0 | 0 | 0 | 3.01 | 0 |  |  |  |  |  |  | 114% | 86.3% | 70.3% | 111% | 72.8% | 88.4% |  |  |  |  |  |  |
